Results published in patent publication US12527779B2, “Prostaglandin E2 (PGE2) EP4 receptor antagonists” (Domain Therapeutics, priority 2019, dated 2026).
Structures can show the parent of a compound that is named as a salt.

Biological target: T1, human EP4 (hEP4) receptor (Homo sapiens, UniProt P35408)
T1 construct: expressed in transfected cells; host or cells: HEK-293 T cells, transient co-transfection with polyethylenimine
Experiment: In vitro human EP4 functional antagonist activity using BRET biosensors (cAMP EPAC biosensor, TCS2510 stimulation)
Type: cell-based
Details: antagonist activity vs EC60 TCS2510, hEP4 in HEK-293 T cells
Experimental: Examples of the present invention were tested successively for their agonist and antagonist activities on human EP4 (hEP4) receptor transiently over-expressed in HEK-293 T cells. […] The assay used to measure compound activity is based on the BRET technology. The unimolecular cAMP biosensor used to detect intracellular cAMP levels following GPCR stimulation consists of the EPAC protein fused to N- and C-terminal of Luciferase and GFP respectively.
Cell Culture and Transfection: HEK-293 T cells are maintained in Dulbecco's Modified Eagle's Medium supplemented with 10% Foetal Calf Serum, 1% Penicillin/Streptomycin at 37° C./5% CO2. Cells are co-transfected using polyethylenimine (25 kDa linear) with two DNA plasmids encoding hEP4, EPAC fused to luciferase (BRET donor) and to GFP (BRET acceptor). After transfection, cells are cultured (40,000 cells per well) for 48 h at 37° C./5% CO2.
BRET assay: Receptor activity is detected by changes in BRET signal. On the day of the assay, cells are rinsed and incubated in assay buffer (1.8 mM CaCl2, 1 mM MgCl2, 2.7 mM KCl, 137 mM NaCl, 0.4 mM NaH2PO4, 5.5 mM D-Glucose, 11.9 mM NaHCO3, 25 mM Hepes). Then, plates are equilibrated 1 h at 22° C. before adding compounds. Compounds and luciferase substrate are added to the cells using an automated device (Freedom Evo®, Tecan) and BRET readings are collected on EnVision (PerkinElmer) with specific filters (410 nm BW 80 nm, 515 nm BW 30 nm). Agonist and antagonist activities of compounds are consecutively evaluated on the same cell plate. Agonist activity is first measured after 5 min incubation with compound alone on the cells. Then, cells are stimulated by an EC60 TCS2510 concentration and luminescence is recorded for additional 10 min. EC60 TCS2510 concentration is the concentration giving 60% of the maximal TCS2510 response. Agonist or antagonist activities are evaluated in comparison to basal signals evoked by assay buffer or EC60 TCS2510 alone, respectively.
For IC50 determination, a dose-response test is performed using 10 concentrations (ranging over 4.5 logs) of each compound. Dose-response curves are fitted using the sigmoidal dose-response (variable slope) analysis in GraphPad Prism software (GraphPad Software) and IC50 of antagonist activity is calculated. Dose-response experiments are performed in duplicate, in two independent experiments. IC50 values are categorized as following: A: IC50<0.1 μM; B: IC50<1 μM.

T1 sequence (P35408 whole entry): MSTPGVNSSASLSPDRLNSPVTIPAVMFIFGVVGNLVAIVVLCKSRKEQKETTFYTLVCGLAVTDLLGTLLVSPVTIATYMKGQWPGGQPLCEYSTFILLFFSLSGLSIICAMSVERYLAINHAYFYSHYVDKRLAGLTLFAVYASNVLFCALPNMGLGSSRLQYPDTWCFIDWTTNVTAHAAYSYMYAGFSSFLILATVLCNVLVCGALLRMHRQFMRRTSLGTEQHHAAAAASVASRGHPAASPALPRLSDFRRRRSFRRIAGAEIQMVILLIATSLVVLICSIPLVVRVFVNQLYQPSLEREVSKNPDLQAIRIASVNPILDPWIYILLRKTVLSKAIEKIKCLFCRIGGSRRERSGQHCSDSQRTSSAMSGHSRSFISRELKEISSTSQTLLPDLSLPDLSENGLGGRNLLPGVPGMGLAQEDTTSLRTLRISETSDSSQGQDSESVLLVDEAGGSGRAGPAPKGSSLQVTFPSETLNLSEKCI

SMILES	IC50
C[C@H](NC(=O)C1(NCCOc2cccc(Cl)c2)CCCC1)C12CC(C(=O)O)(C1)C2 [Example 64, 3-[(1S)-1-[[1-[2-(3-Chlorophenoxy)ethylamino]cyclopentanecarbonyl]amino]ethyl]bicyclo[1.1.1]pentane-1-carboxylic acid, hydrochloride]	< 1 µM
C[C@H](NC(=O)C1(NCCOc2ccccc2)CCC(F)(F)CC1)c1ccc(C(=O)O)cc1 [Example 65, 4-[(1S)-1-[[4,4-Difluoro-1-(2-phenoxyethylamino)cyclohexanecarbonyl]amino]ethyl]benzoic acid, hydrochloride]	< 1 µM
C[C@H](NC(=O)C1(NCCOc2ccccc2)CCSCC1)c1ccc(C(=O)O)cc1 [Example 66, 4-[(1S)-1-[[4-(2-Phenoxyethylamino)tetrahydrothiopyran-4-carbonyl]amino]ethyl]benzoic acid]	< 0.1 µM
C[C@H](NC(=O)C1(NCCOc2ccccc2)CC2(CCC2)C1)c1ccc(C(=O)O)cc1 [Example 68, 4-[(1S)-1-[[2-(2-Phenoxyethylamino)spiro[3.3]heptane-2-carbonyl]amino]ethyl]benzoic acid, hydrochloride]	< 1 µM
C[C@H](NC(=O)C1(NCCOc2ccccc2)CCC1)c1ccc(C(=O)O)cc1 [Example 69, 4-[(1S)-1-[[1-(2-Phenoxyethylamino)cyclobutanecarbonyl]amino]ethyl]benzoic acid, hydrochloride]	< 1 µM
C[C@H](NC(=O)C1(N(C)CCOc2ccccc2)CCCOC1)c1ccc(C(=O)O)cc1 (stereo partly drawn) [Example 73, 4-[(1S)-1-[[3-[Methyl(2-phenoxyethyl)amino]tetrahydropyran-3-carbonyl]amino]ethyl]benzoic acid, hydrochloride]	< 1 µM
C[C@H](NC(=O)C1(N(C)CCOc2ccccc2)CCOC1)c1ccc(C(=O)O)cc1 (stereo partly drawn) [Example 74, 4-[(1S)-1-[[3-[Methyl(2-phenoxyethyl)amino]tetrahydrofuran-3-carbonyl]amino]ethyl]benzoic acid, hydrochloride]	< 0.1 µM
C[C@H](NC(=O)C1(N(C)CCOc2cccc(Cl)c2)CCOC1)c1ccc(C(=O)O)cc1 (stereo partly drawn) [Example 75, 4-[(1S)-1-[[3-[2-(3-Chlorophenoxy)ethyl-methyl-amino]tetrahydrofuran-3-carbonyl]amino]ethyl]benzoic acid, hydrochloride]	< 0.1 µM
CN(CCOc1ccccc1)C1(C(=O)NC2(c3ccc(C(=O)O)cc3)CC2)CCOC1 (stereo not drawn) [Example 76, 4-[1-[[3-[Methyl(2-phenoxyethyl)amino]tetrahydrofuran-3-carbonyl]amino]cyclopropyl]benzoic acid, hydrochloride]	< 1 µM
CN(CCOc1cccc(Cl)c1)C1(C(=O)NC2(c3ccc(C(=O)O)cc3)CC2)CCOC1 (stereo not drawn) [Example 77, 4-[1-[[3-[2-(3-Chlorophenoxy)ethyl-methyl-amino]tetrahydrofuran-3-carbonyl]amino]cyclopropyl]benzoic acid, hydrochloride]	< 0.1 µM
C[C@H](NC(=O)C1(CCCOc2ccccc2)CCOCC1)c1ccc(C(=O)O)cc1 [Example 81, 4-[(1S)-1-[[4-(3-Phenoxypropyl)tetrahydropyran-4-carbonyl]amino]ethy]benzoic Acid]	< 0.1 µM
O=C(O)c1ccc(C2(NC(=O)C3(OCCOc4cccc(Cl)c4)CCOCC3)CC2)cc1 [Example 82, 4-[1-[[4-[2-(3-Chlorophenoxy)ethoxy]tetrahydropyran-4-carbonyl]amino]cyclopropyl]benzoic acid]	< 0.1 µM
CCCC(C)COc1ccc(C2(C(=O)N[C@@H](C)c3ccc(C(=O)O)cc3)CCOCC2)cc1 (stereo partly drawn) [Example 84, 4-[(1S)-1-[[4-[4-(2-Methylpentoxy)phenyl]tetrahydropyran-4-carbonyl]amino]ethyl]benzoic acid]	< 1 µM
C[C@H](NC(=O)C1(c2ccc(OCc3ccccc3)cc2)CCOCC1)c1ccc(C(=O)O)cc1 [Example 88, 4-[(1S)-1-[[4-(4-Benzyloxyphenyl)tetrahydropyran-4-carbonyl]amino]ethyl]benzoic acid]	< 1 µM
C[C@H](NC(=O)C1(c2ccc(OCC3CCCCC3)cc2)CCOCC1)c1ccc(C(=O)O)cc1 [Example 89, 4-[(1S)-1-[[4-[4-(Cyclohexylmethoxy)phenyl]tetrahydropyran-4-carbonyl]amino]ethyl]benzoic acid]	< 1 µM
C[C@H](NC(=O)C1(c2ccc(OCC(F)(F)F)cc2)CCOCC1)c1ccc(C(=O)O)cc1 [Example 91, 4-[(1S)-1-[[4-[4-(2,2,2-Trifluoroethoxy)phenyl]tetrahydropyran-4-carbonyl]amino]ethyl]benzoic acid]	< 1 µM
C[C@H](NC(=O)C1(c2ccc(OCCCc3ccccc3)cc2)CCOCC1)c1ccc(C(=O)O)cc1 [Example 92, 4-[(1S)-1-[[4-[4-(3-Phenylpropoxy)phenyl]tetrahydropyran-4-carbonyl]amino]ethyl]benzoic acid]	< 0.1 µM
C[C@H](NC(=O)C1(c2ccc(OCCc3ccccc3)cc2)CCOCC1)c1ccc(C(=O)O)cc1 [Example 94]	< 1 µM
C[C@H](NC(=O)C1(c2ccc(OCCC3CCCCC3)cc2)CCOCC1)c1ccc(C(=O)O)cc1 [Example 95, 4-[(1S)-1-[[4-[4-(2-Cyclohexylethoxy)phenyl]tetrahydropyran-4-carbonyl]amino]ethyl]benzoic acid]	< 1 µM
C[C@H](NC(=O)C1(c2ccc(OCc3cccnc3)cc2)CCOCC1)c1ccc(C(=O)O)cc1 [Example 96, 4-[(1S)-1-[[4-[4-(3-Pyridylmethoxy)phenyl]tetrahydropyran-4-carbonyl]amino]ethyl]benzoic acid]	< 1 µM
C[C@H](NC(=O)C1(c2cccc(OCC3CCCCC3)c2)CCOCC1)c1ccc(C(=O)O)cc1 [Example 97, 4-[(1S)-1-[[4-[3-(Cyclohexylmethoxy)phenyl]tetrahydropyran-4-carbonyl]amino]ethyl]benzoic acid]	< 1 µM
C[C@H](NC(=O)C1(c2cccc(OCC3CCOCC3)c2)CCOCC1)c1ccc(C(=O)O)cc1 [Example 98, 4-[(1S)-1-[[4-[3-(Tetrahydropyran-4-ylmethoxy)phenyl]tetrahydropyran-4-carbonyl]amino]ethyl]benzoic acid]	< 1 µM
C[C@H](NC(=O)C1(c2cccc(OCc3ccccc3)c2)CCOCC1)c1ccc(C(=O)O)cc1 [Example 99, 4-[(1S)-1-[[4-(3-Benzyloxyphenyl)tetrahydropyran-4-carbonyl]amino]ethyl]benzoic acid]	< 1 µM
C[C@H](NC(=O)C1(c2cccc(OC3CCCCC3)c2)CCOCC1)c1ccc(C(=O)O)cc1 [Example 100, 4-[(1S)-1-[[4-[3-(Cyclohexoxy)phenyl]tetrahydropyran-4-carbonyl]amino]ethyl]benzoic acid]	< 1 µM
C[C@H](NC(=O)C1(c2cccc(OCC3CC3)c2)CCOCC1)c1ccc(C(=O)O)cc1 [Example 101, 4-[(1S)-1-[[4-[3-(Cyclopropylmethoxy)phenyl]tetrahydropyran-4-carbonyl]amino]ethyl]benzoic acid]	< 1 µM
C[C@H](NC(=O)C1(c2cccc(OCC3CCCC3)c2)CCOCC1)c1ccc(C(=O)O)cc1 [Example 102, 4-[(1S)-1-[[4-[3-(Cyclopentylmethoxy)phenyl]tetrahydropyran-4-carbonyl]amino]ethyl]benzoic acid]	< 1 µM
C[C@H](NC(=O)C1(c2cccc(OCC3CCCCCC3)c2)CCOCC1)c1ccc(C(=O)O)cc1 [Example 103, 4-[(1S)-1-[[4-[3-(Cycloheptylmethoxy)phenyl]tetrahydropyran-4-carbonyl]amino]ethyl]benzoic acid]	< 0.1 µM
CC(C)CCOc1cccc(C2(C(=O)N[C@@H](C)c3ccc(C(=O)O)cc3)CCOCC2)c1 [Example 104, 4-[(1S)-1-[[4-(3-Isopentyloxyphenyl)tetrahydropyran-4-carbonyl]amino]ethyl]benzoic acid]	< 1 µM
C[C@H](NC(=O)C1(c2cccc(OCCC3CCCCC3)c2)CCOCC1)c1ccc(C(=O)O)cc1 [Example 105, 4-[(1S)-1-[[4-[3-(2-Cyclohexylethoxy)phenyl]tetrahydropyran-4-carbonyl]amino]ethyl]benzoic acid]	< 1 µM
C[C@H](NC(=O)C1(c2ccc(OCC3CCCCC3)cc2)CCCC1)c1ccc(C(=O)O)cc1 [Example 108, 4-[(1S)-1-[[1-[4-(Cyclohexylmethoxy)phenyl]cyclopentanecarbonyl]amino]ethyl]benzoic acid]	< 0.1 µM
